Results from ChEMBL document CHEMBL4837270, “2-Trifluoromethylthiazole-5-carboxamides: Analogues of a Stilbene-Based Anti-HIV Agent that Impact HIV mRNA Processing” (ACS Med Chem Lett, 2021).
Calls of active or inactive are those of the source. No cut-off for these calls is given here.

Columns and labels:
[1] = test system: Human immunodeficiency virus 1; assay: Antiviral activity against HIV1 infected in HeLa cells assessed as decrease of multiply spliced RNA levels at 1.25 uM measured after 24 hrs by RT-qPCR method; assay type: functional, organism-based
[2] = Cytotoxicity against human CEM-GXR cells infected with wild type HIV1 2948 harboring protease G48V/L90M mutant assessed as cell viability measured after 72 hrs by Flow cytometry assay; assay type: cell-based
[3] = Cytotoxicity against human CEM-GXR cells infected with wild type HIV1 11845 harboring […] G140S/Q148H mutant assessed as cell viability measured after 72 hrs by Flow cytometry assay; assay type: cell-based
[4] = Therapeutic index, ratio of CC50 for human CEM-GXR cells infected HIV1 2948 with harboring protease G48V/L90M mutant to EC50 for HIV1 2948 harboring protease G48V/L90M mutant infected in human CEM-GXR cells; assay type: toxicity, cell-based; conditions: read-out: TI
[5] = test system: Human immunodeficiency virus 1; assay: Antiviral activity against antiretroviral-resistant HIV1 MVC-res harboring envelope V3 loop A19T/L20F/T22A/E25D/I26V mutant infected in human CEM-GXR cells assessed as inhibition of viral replication measured after 3 days by Flowcytometry assay; assay type: functional, organism-based
[6] = test system: Human immunodeficiency virus 1; assay: Antiviral activity against HIV1 infected in HeLa cells assessed as decrease of singly spliced RNA levels at 1.25 uM measured after 24 hrs by RT-qPCR method; assay type: functional, organism-based
[7] = test system: Human immunodeficiency virus 1; assay: Antiviral activity against HIV1 infected in HeLa cells assessed as decrease of unspliced RNA levels at 5 uM measured after 24 hrs by RT-qPCR method; assay type: functional, organism-based
[8] = test system: Human immunodeficiency virus 1; assay: Antiviral activity against antiretroviral-resistant HIV1 2948 harboring protease G48V/L90M mutant infected in human CEM-GXR cells assessed as inhibition of viral replication measured after 3 days by Flowcytometry assay; assay type: functional, organism-based; conditions: Human immunodeficiency virus 1, 2948, CEM-GXR, 72 h
[9] = Cytotoxicity against human PBMC cells assessed as cell viability measured after 11 days by Viacount assay; assay type: cell-based; conditions: time 11 day
[10] = Therapeutic index, ratio of CC50 for human CEM-GXR cells infected with HIV1 11845 harboring integrase G140S/Q148H mutant to EC50 for HIV1 11845 harboring integrase G140S/Q148H mutant infected in human CEM-GXR cells; assay type: toxicity, cell-based; conditions: read-out: TI
[11] = Cytotoxicity against human CEM-GXR cells infected with wild type HIV1 443 harboring reverse transcriptase K103N/D67N/K70R/Y115F/Q151M/M184V/K219Q mutant assessed as cell viability measured after 72 hrs by Flow cytometry assay; assay type: cell-based
[12] = test system: Human immunodeficiency virus 1; assay: Antiviral activity against HIV1 NL4-3 infected in human CEM-GXR cells assessed as inhibition of viral replication measured after 3 days by Flowcytometry assay; assay type: functional, organism-based; conditions: Human immunodeficiency virus 1, NL4-3, CEM-GXR, 72 h
[13] = Anti-HIV activity against HIV1 3B infected in human PBMC assessed as inhibition of viral infection measured after 11 days by ELISA method; assay type: functional, cell-based; conditions: Human immunodeficiency virus 1, 3B, 264 h
[14] = test system: Human immunodeficiency virus 1; assay: Antiviral activity against HIV1 infected in HeLa cells assessed as decrease of unspliced RNA levels at 1.25 uM measured after 24 hrs by RT-qPCR method; assay type: functional, organism-based
[15] = test system: Human immunodeficiency virus 1; assay: Antiviral activity against antiretroviral-resistant HIV1 443 harboring reverse transcriptase K103N/D67N/K70R/Y115F/Q151M/M184V/K219Q mutant infected in human CEM-GXR cells assessed as inhibition of viral replication measured after 3 days by Flowcytometry assay; assay type: functional, organism-based; conditions: Human immunodeficiency virus 1, 443, CEM-GXR, 72 h
[16] = Therapeutic index, ratio of CC50 for human CEM-GXR cells infected with wild type HIV1 NL4-3 to EC50 for wild type HIV1 NL4-3 infected in human CEM-GXR cells; assay type: toxicity, cell-based; conditions: read-out: TI
[17] = Therapeutic index, ratio of CC50 for human CEM-GXR cells infected with wild type HIV1 97USSN54 to EC50 for wild type HIV1 97USSN54 infected in human CEM-GXR cells; assay type: toxicity, cell-based; conditions: read-out: TI
[18] = test system: Human immunodeficiency virus 1; assay: Antiviral activity against HIV1 infected in HeLa cells assessed as decrease of singly spliced RNA levels at 5 uM measured after 24 hrs by RT-qPCR method; assay type: functional, organism-based
[19] = Cytotoxicity against human CEM-GXR cells infected with wild type HIV1 MVC-res harboring envelope V3 loop A19T/L20F/T22A/E25D/I26V mutant assessed as cell viability measured after 72 hrs by Flow cytometry assay; assay type: cell-based
[20] = test system: Human immunodeficiency virus 1; assay: Antiviral activity against antiretroviral-resistant HIV1 11845 harboring integrase G140S/Q148H mutant infected in human CEM-GXR cells assessed as inhibition of viral replication measured after 3 days by Flowcytometry assay; assay type: functional, organism-based; conditions: Human immunodeficiency virus 1, 11845, CEM-GXR, 72 h
[21] = Cytotoxicity against human CEM-GXR cells infected with wild type HIV1 97USSN54 assessed as cell viability measured after 72 hrs by Flow cytometry assay; assay type: cell-based
[22] = Therapeutic index, ratio of CC50 for human CEM-GXR cells infected with HIV1 443 harboring reverse transcriptase K103N/D67N/K70R/Y115F/Q151M/M184V/K219Q mutant to EC50 for HIV1 443 harboring reverse transcriptase K103N/D67N/K70R/Y115F/Q151M/M184V/K219Q mutant; assay type: toxicity; conditions: read-out: TI
[23] = test system: Human immunodeficiency virus 1; assay: Antiviral activity against HIV1 infected in HeLa cells assessed as decrease of multiply spliced RNA levels at 5 uM measured after 24 hrs by RT-qPCR method; assay type: functional, organism-based
[24] = test system: Human immunodeficiency virus 1; assay: Antiviral activity against wild type HIV1 NL4-3 infected in human CEM-GXR cells assessed as inhibition of viral replication measured after 3 days by Flowcytometry assay; assay type: functional, organism-based; conditions: Human immunodeficiency virus 1, NL4-3, CEM-GXR, 72 h
[25] = test system: Human immunodeficiency virus 1; assay: Antiviral activity against wild type HIV1 97USSN54 infected in human CEM-GXR cells assessed as inhibition of viral replication measured after 3 days by Flowcytometry assay; assay type: functional, organism-based; conditions: Human immunodeficiency virus 1, 97USSN54, CEM-GXR, 72 h
[26] = Cytotoxicity against human CEM-GXR cells infected with wild type HIV1 NL4-3 assessed as cell viability measured after 72 hrs by Flow cytometry assay; assay type: cell-based
[27] = test system: Human immunodeficiency virus 1; assay: Anti-HIV activity against HIV1 Bal infected in human PBMC assessed as inhibition of viral infection measured after 11 days by ELISA method; assay type: functional, organism-based; conditions: Human immunodeficiency virus 1, Bal, 264 h
HeLa = assay: Cytotoxicity against human HeLa cells infected with HIV1 assessed as cell viability upto 5 uM measured after 24 hrs by plate reader method; assay type: cell-based
[28] = Therapeutic index, ratio of CC50 for human CEM-GXR cells infected with HIV1 MVC-res harboring envelope V3 loop A19T/L20F/T22A/E25D/I26V mutant to EC50 for HIV1 MVC-res harboring envelope V3 loop A19T/L20F/T22A/E25D/I26V mutant infected in human CEM-GXR cells; assay type: toxicity, cell-based; conditions: read-out: TI
[29] = test system: Human immunodeficiency virus 1; assay: Anti-HIV activity against HIV1 provirus infected in HeLa cells assessed as reduction of GAG production in presence of Doxycycline measured after 24 hrs by GFP flourescence based plate reader method; assay type: functional, organism-based
[30] = Cytotoxicity against human CEM-GXR cells infected with HIV1 NL4-3 assessed as cell viability measured after 3 days by Flowcytometry assay; assay type: cell-based; conditions: 72 h
[31] = test system: Human immunodeficiency virus 1; assay: Antiviral activity against HIV1 NL4-3 infected in human CEM-GXR cells assessed as inhibition of viral replication at 1.25 to 10 uM measured after 3 days by Flowcytometry assay; assay type: functional, organism-based; conditions: dose 1.25-10 µM, time 3.0 day
[32] = Cytotoxicity against human CEM-GXR cells infected with HIV1 NL4-3 assessed as cell viability at 10 uM measured after 72 hrs by Flowcytometry assay; assay type: cell-based
[33] = Cytotoxicity against human CEM-GXR cells infected with HIV1 NL4-3 assessed as cell viability at 1.25 to 10 uM measured after 3 days by Flowcytometry assay; assay type: cell-based; conditions: 72 h, dose 1.25-10 µM, time 3 day
[34] = test system: Human immunodeficiency virus; assay: Antiviral activity against HIV; assay type: functional, organism-based; conditions: Human immunodeficiency virus 1

## O=C(Nc1nc2ccc(C(F)(F)F)cc2s1)c1cnc(C(F)(F)F)s1
[1]
  Activity: Active
[2]
  CC50 at 72 h: 12.1 µM
[3]
  CC50 at 72 h: 12.1 µM
[4]
  selectivity ratio: 52
[5]
  EC50: 0.22 µM
[6]
  Activity: Active
[7]
  Activity: inactive
[8]
  EC50: 0.23 µM
[9]
  CC50 at 264 h: 2.51 µM
[10]
  selectivity ratio: 59
[11]
  CC50 at 72 h: 12.1 µM
[12]
  EC50: 0.47 µM
[13]
  EC50: 0.74 µM
[14]
  Activity: Active
[15]
  EC50: 0.24 µM
[16]
  selectivity ratio: 49
[17]
  selectivity ratio: 68
[18]
  Activity: inactive
[19]
  CC50 at 72 h: 12.1 µM
[20]
  EC50: 0.2 µM
[21]
  CC50 at 72 h: 12.1 µM
[22]
  selectivity ratio: 51
[23]
  Activity: inactive
[24]
  EC50: 0.25 µM
[25]
  EC50: 0.18 µM
[26]
  CC50 at 72 h: 12.1 µM
[27]
  EC50: 0.25 µM
HeLa
  Activity: Toxic
[28]
  selectivity ratio: 56
[29]
  Activity: Dose-Dependent Effect

## O=C(Nc1nc2c(Cl)cccc2s1)c1ccc([N+](=O)[O-])s1
[30]
  EC50: 5.5 µM
[31]
  Activity: Active

## Nc1nc(=O)n([C@@H]2CS[C@H](CO)O2)cc1F [EMTRICITABINE]
[9]
  CC50 at 264 h: > 10 µM
[13]
  EC50: 0.0055 µM
[16]
  selectivity ratio: > 2940
[17]
  selectivity ratio: > 3850
[21]
  CC50 at 72 h: > 100 µM
[24]
  EC50: 0.03 µM
[25]
  EC50: 0.03 µM
[26]
  CC50 at 72 h: > 100 µM
[27]
  EC50: 0.0021 µM

## O=C(Nc1cccc2ncccc12)c1ccc([N+](=O)[O-])s1
[31]
  Activity: inactive

## O=C(Nc1nc2ccc([N+](=O)[O-])cc2s1)c1ccc([N+](=O)[O-])s1
[30]
  EC50: 2.4 µM
[31]
  Activity: Active

## O=C(Nc1cnc2ccccc2c1)c1ccc([N+](=O)[O-])s1
[31]
  Activity: inactive

## O=C(Nc1nc2ccc(C(F)(F)F)cc2s1)c1ccc([N+](=O)[O-])s1
[30]
  EC50: 0.5 µM
[31]
  Activity: Active

## N#Cc1ccc(C(=O)Nc2nc3c(Cl)cccc3s2)s1
[12]
  EC50: 3 µM

## O=C(Nc1cncc2ccccc12)c1ccc([N+](=O)[O-])s1
[31]
  Activity: inactive

## O=C(Nc1nsc2ccc([N+](=O)[O-])cc12)c1ccc([N+](=O)[O-])s1
[31]
  Activity: inactive

## O=C(Nc1nc2c(Cl)cccc2s1)c1cnc(C(F)(F)F)s1
[2]
  CC50 at 72 h: 95.7 µM
[3]
  CC50 at 72 h: 95.7 µM
[4]
  selectivity ratio: 82
[5]
  EC50: 0.97 µM
[8]
  EC50: 1.17 µM
[9]
  CC50 at 264 h: 9.08 µM
[10]
  selectivity ratio: 101
[11]
  CC50 at 72 h: 95.7 µM
[12]
  EC50: 1.66 µM
[13]
  EC50: 1.93 µM
[15]
  EC50: 1.16 µM
[16]
  selectivity ratio: 74
[17]
  selectivity ratio: 100
[32]
  Activity: Non-Toxic
[19]
  CC50 at 72 h: 95.7 µM
[20]
  EC50: 0.96 µM
[21]
  CC50 at 72 h: 95.7 µM
[22]
  selectivity ratio: 83
[24]
  EC50: 1.29 µM
[25]
  EC50: 0.96 µM
[26]
  CC50 at 72 h: 95.7 µM
[27]
  EC50: 0.24 µM
[28]
  selectivity ratio: 99

## O=C(Nc1nc2c(Cl)cc(Cl)cc2s1)c1ccc([N+](=O)[O-])s1
[33]
  Activity: Toxic
[31]
  Activity: Active

## O=C(Nc1nc2ccc(OC(F)(F)F)cc2s1)c1ccc([N+](=O)[O-])s1
[33]
  Activity: Toxic
[31]
  Activity: Active

## O=[N+]([O-])c1ccc(/C=C/c2ccc3ccccc3n2)s1
[34]
  EC50: 0.5 µM

## O=C(Nc1nc2c(Cl)cccc2s1)c1cccs1
[31]
  Activity: inactive

## O=C(Nc1nc2ccc(Cl)cc2s1)c1ccc([N+](=O)[O-])s1
[33]
  Activity: Toxic
[31]
  Activity: Active

## O=C(Nc1ccc(C(F)(F)F)cc1)c1ccc([N+](=O)[O-])s1
[29]
  Activity: inactive

## O=C(Nc1nc2cc(Br)ccc2s1)c1ccc([N+](=O)[O-])s1
[33]
  Activity: Toxic
[31]
  Activity: Active

## O=C(Nc1nc2c(Cl)cccc2s1)c1ccc(C(F)(F)F)s1
[12]
  EC50: 5.5 µM

## O=C(Nc1cccc2cccnc12)c1ccc([N+](=O)[O-])s1
[31]
  Activity: inactive

## Cc1ccc(C(=O)Nc2nc3c(Cl)cccc3s2)s1
[31]
  Activity: inactive
